Experimental data from patent publication US9796720B2, “Imidazole-derived modulators of the glucocorticoid receptor” (BRISTOL-MYERS SQUIBB COMPANY, priority 2013, dated 2017).
Where two headings read alike, the source gives them in different places.

How the values were obtained:
[1] = biological target: human full-length glucocorticoid receptor (Homo sapiens (Human), UniProt P04150); test: Glucocorticoid Receptor Binding Assay (II), fluorescence polarization competitor assay; conditions: recombinant human full-length GR cell lysate, Fluormone GS1; read-out: GR (Ki, nM) (measured in GR binding Assay II)
human full-length glucocorticoid receptor, sequence (P04150 whole entry): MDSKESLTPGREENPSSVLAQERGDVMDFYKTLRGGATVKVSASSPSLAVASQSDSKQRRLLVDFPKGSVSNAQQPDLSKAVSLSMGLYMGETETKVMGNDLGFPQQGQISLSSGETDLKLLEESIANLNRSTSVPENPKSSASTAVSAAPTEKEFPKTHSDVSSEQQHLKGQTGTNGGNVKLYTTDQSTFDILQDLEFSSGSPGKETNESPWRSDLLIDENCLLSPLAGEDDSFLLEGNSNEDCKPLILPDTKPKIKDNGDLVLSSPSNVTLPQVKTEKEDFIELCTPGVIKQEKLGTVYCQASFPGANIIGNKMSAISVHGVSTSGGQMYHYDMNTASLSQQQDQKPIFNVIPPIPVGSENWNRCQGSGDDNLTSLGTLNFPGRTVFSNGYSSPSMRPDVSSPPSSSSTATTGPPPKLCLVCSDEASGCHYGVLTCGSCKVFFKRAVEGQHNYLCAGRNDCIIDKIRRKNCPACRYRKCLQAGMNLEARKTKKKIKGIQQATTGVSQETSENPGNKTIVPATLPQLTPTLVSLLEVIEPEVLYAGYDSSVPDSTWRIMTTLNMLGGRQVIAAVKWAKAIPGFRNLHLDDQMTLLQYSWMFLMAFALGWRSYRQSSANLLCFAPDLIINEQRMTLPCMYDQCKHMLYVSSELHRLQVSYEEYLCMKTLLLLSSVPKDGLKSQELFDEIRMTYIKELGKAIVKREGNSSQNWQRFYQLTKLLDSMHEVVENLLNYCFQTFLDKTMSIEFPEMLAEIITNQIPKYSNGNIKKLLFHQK
Experimental: Glucocorticoid Receptor Binding Assay (II)
In order to measure the binding of compounds on the glucocorticoid receptor a commercially available kit was used (Glucocorticoid receptor competitor assay kit, PanVera Co., Madison, Wis., P2816). Briefly, a cell lysate containing recombinantly expressed human full-length glucocorticoid receptor was mixed with a fluorescently labeled glucocorticoid (1 nM Fluormone GS1) in the presence or absence of test compound. After one hour at room temperature, the fluorescence polarization (FP) of the samples were measured.

[2] = test system: AP-1; test: Cellular transrepressional assay (AP-1 luciferase reporter in A549 cells, PMA-activated); format: cell-based; conditions: for EC50: read-out: AP-1 (EC50, nM) (measured in cellular transrepression assay); for Emax: read-out: AP-1 Max % inhibition (measured in cellular transrepression assay)
Experimental: Cellular Transrepressional Assay
To measure the ability of test molecules to inhibit AP-1 induced transcriptional activity we utilized an A549 cell which was stably transfected with a plasmid containing 7×AP-1 DNA binding sites (pAP-1-Luc plasmid, Stratagene Co. La Jolla, Calif.) followed by the gene for luciferase. Cells were activated with 10 ng/ml of phorbol myristic acid (PMA) plus or minus test molecules for 7 hours. After 7 hours a luciferase reagent was added to measure luciferase enzymatic activity in the cell. After a 10 minute incubation of luciferase reagent with cells, luminescence was measured in a TOPCOUNT® luminescence counter. Repression of AP-1 activity was calculated as the percentage decrease in the signal induced by PMA alone. Test molecules were analyzed in the concentration range from 0.1 nM to 40 μM. EC50s were determined by using standard curve fitting methods such as Excel fit (Microsoft Co.). An EC50 is the test molecule concentration at which there is a 50% repression of the maximal inhibition of transcription, i.e., a 50% reduction of AP-1 activity.

[3] = A549 cells, 7xAP-1 luciferase, PMA 10 ng/ml, 7 hours

SMILES | Ki [1] | EC50 [2, 3] | Emax [2, 3] | EC50 ([2]; 7 h) | Emax ([2]; 7 h)
CCS(=O)(=O)c1ccc(-c2ccc3c(n2)Oc2c(F)cccc2[C@@H]3C(C)(C)c2nc3nccnc3[nH]2)cc1 [Example 6, (S)-5-(2-(1H-Imidazo[4,5-b]pyrazin-2-yl)propan-2-yl)-2-(4-(ethylsulfonyl)phenyl)-9-fluoro-5H-chromeno[2,3-b]pyridine] | 2.34 nM | 15.5 nM | 58.2% | – | –
CC(C)(c1nc2nccnc2[nH]1)[C@@H]1c2ccc(-c3ccc(NS(C)(=O)=O)cc3)nc2Oc2c(F)cccc21 [Example 23, (S)-N-(4-(5-(2-(1H-Imidazo[4,5-b]pyrazin-2-yl)propan-2-yl)-9-fluoro-5H-chromeno[2,3-b]pyridin-2-yl)phenyl)methanesulfonamide] | 1.76 nM | – | – | 22.8 nM | 58.2%
CC(C)(c1nc2nccnc2[nH]1)[C@@H]1c2ccc(-c3ccc(C(=O)N4CCOCC4)nc3)nc2Oc2c(F)cccc21 [Example 30, (S)-(5-(5-(2-(1H-Imidazo[4,5-b]pyrazin-2-yl)propan-2-yl)-9-fluoro-5H-chromeno[2,3-b]pyridin-2-yl)pyridin-2-yl)(morpholino)methanone] | 30.3 nM | 179 nM | 57% | – | –
CC(=O)Nc1ccc(-c2ccc3c(n2)Oc2c(F)cccc2[C@@H]3C(C)(C)c2nc3nccnc3[nH]2)cc1 [Example 19, (S)-N-(4-(5-(2-(1H-Imidazo[4,5-b]pyrazin-2-yl)propan-2-yl)-9-fluoro-5H-chromeno[2,3-b]pyridin-2-yl)phenyl)acetamide] | 70.5 nM | 1950 nM | 44.6% | – | –
CC(C)(O)c1ccc(-c2ccc3c(n2)Oc2c(F)cccc2[C@@H]3C(C)(C)c2nc3nccnc3[nH]2)cn1 [Example 27, (S)-2-(5-(5-(2-(1H-Imidazo[4,5-b]pyrazin-2-yl)propan-2-yl)-9-fluoro-5H-chromeno[2,3-b]pyridin-2-yl)pyridin-2-yl)propan-2-ol] | 9.3 nM | 28.4 nM | 53.6% | – | –
CCOc1ccc(-c2ccc3c(n2)Oc2c(F)cccc2[C@@H]3C(C)(C)c2nc3nccnc3[nH]2)cc1 [Example 12, (S)-5-(2-(1H-Imidazo[4,5-b]pyrazin-2-yl)propan-2-yl)-2-(4-ethoxyphenyl)-9-fluoro-5H-chromeno[2,3-b]pyridine] | 0.66 nM | 14.4 nM | 62.6% | – | –
CC(C)Oc1ccc(-c2ccc3c(n2)Oc2c(F)cccc2[C@@H]3C(C)(C)c2nc3nccnc3[nH]2)cn1 [Example 25, (S)-5-(2-(1H-Imidazo[4,5-b]pyrazin-2-yl)propan-2-yl)-9-fluoro-2-(6-isopropoxypyridin-3-yl)-5H-chromeno[2,3-b]pyridine] | 2.78 nM | 31.7 nM | 57.8% | – | –
CC(C)(c1nc2nccnc2[nH]1)[C@@H]1c2ccc(-c3ccc(N4CCCC4=O)cc3)nc2Oc2c(F)cccc21 [Example 24, (S)-1-(4-(5-(2-(1H-Imidazo[4,5-b]pyrazin-2-yl)propan-2-yl)-9-fluoro-5H-chromeno[2,3-b]pyridin-2-yl)phenyl)pyrrolidin-2-one] | 1.9 nM | 37.3 nM | 69.4% | – | –
CC(C)Oc1ccc(-c2ccc3c(n2)Oc2c(F)cccc2[C@@H]3C(C)(C)c2nc3nccnc3[nH]2)cc1 [Example 8, (S)-5-(2-(1H-Imidazo[4,5-b]pyrazin-2-yl)propan-2-yl)-9-fluoro-2-(4-isopropoxyphenyl)-5H-chromeno[2,3-b]pyridine] | 0.76 nM | 9.82 nM | 69.8% | – | –
CC(=O)c1ccc(-c2ccc3c(n2)Oc2c(F)cccc2[C@@H]3C(C)(C)c2nc3nccnc3[nH]2)cc1 [Example 2, (S)-1-(4-(5-(2-(1H-Imidazo[4,5-b]pyrazin-2-yl)propan-2-yl)-9-fluoro-5H-chromeno[2,3-b]pyridin-2-yl)phenyl)ethanone] | 3.28 nM | – | – | 4.39 nM | 59.7%
CC(C)Oc1ccc(-c2ccc3c(n2)Oc2c(F)cccc2[C@@H]3C(C)(C)c2nc3nccnc3[nH]2)cc1Cl [Example 9, (S)-5-(2-(1H-Imidazo[4,5-b]pyrazin-2-yl)propan-2-yl)-2-(3-chloro-4-isopropoxyphenyl)-9-fluoro-5H-chromeno[2,3-b]pyridine] | 2.1 nM | 291 nM | 43.7% | – | –
CC(C)(c1nc2nccnc2[nH]1)[C@@H]1c2ccc(-c3ccc(C(=O)N4CCOCC4)cc3)nc2Oc2c(F)cccc21 [Example 1, (S)-(4-(5-(2-(1H-Imidazo[4,5-b]pyrazin-2-yl)propan-2-yl)-9-fluoro-5H-chromeno[2,3-b]pyridin-2-yl)phenyl)(morpholino)methanone] | 57 nM | 8.33 nM | 65.2% | – | –
CC(C)(C)Oc1ccc(-c2ccc3c(n2)Oc2c(F)cccc2[C@@H]3C(C)(C)c2nc3nccnc3[nH]2)cc1 [Example 11, (S)-5-(2-(1H-Imidazo[4,5-b]pyrazin-2-yl)propan-2-yl)-2-(4-tert-butoxyphenyl)-9-fluoro-5H-chromeno[2,3-b]pyridine] | 0.82 nM | – | – | 37.5 nM | 76.3%
Cn1nnnc1-c1ccc(-c2ccc3c(n2)Oc2c(F)cccc2[C@@H]3C(C)(C)c2nc3nccnc3[nH]2)cc1 [Example 31, (S)-5-(2-(1H-Imidazo[4,5-b]pyrazin-2-yl)propan-2-yl)-9-fluoro-2-(4-(1-methyl-1H-tetrazol-5-yl)phenyl)-5H-chromeno[2,3-b]pyridine] | 1.94 nM | 15 nM | 48.6% | – | –
CN(C)c1ccc(-c2ccc3c(n2)Oc2c(F)cccc2[C@@H]3C(C)(C)c2nc3nccnc3[nH]2)cn1 [Example 29, (S)-5-(5-(2-(1H-Imidazo[4,5-b]pyrazin-2-yl)propan-2-yl)-9-fluoro-5H-chromeno[2,3-b]pyridin-2-yl)-N,N-dimethylpyridin-2-amine] | 5.43 nM | 129 nM | 44.9% | – | –

Continued, in another order:

Ki [1] | EC50 [2, 3] | SMILES | Emax [2, 3] | EC50 ([2]; 7 h) | Emax ([2]; 7 h)
16.1 nM | 284 nM | CC(C)(c1nc2ccccc2[nH]1)[C@@H]1c2ccc(-c3ccc(C(=O)N4CCOCC4)cc3)nc2Oc2c(F)cccc21 [Example 14, (S)-(4-(5-(2-(1H-Benzo[d]imidazol-2-yl)propan-2-yl)-9-fluoro-5H-chromeno[2,3-b]pyridin-2-yl)phenyl)(morpholino)methanone] | 31.6% | – | –
2.36 nM | 55.1 nM | CC(C)(c1nc2nccnc2[nH]1)[C@@H]1c2ccc(-c3ccc(OC(F)(F)F)cc3)nc2Oc2c(F)cccc21 [Example 13, (S)-5-(2-(1H-Imidazo[4,5-b]pyrazin-2-yl)propan-2-yl)-9-fluoro-2-(4-(trifluoromethoxy)phenyl)-5H-chromeno[2,3-b]pyridine] | 55.5% | – | –
2.63 nM | 4.94 nM | CN(C)C(=O)c1ccc(-c2ccc3c(n2)Oc2c(F)cccc2[C@@H]3C(C)(C)c2nc3nccnc3[nH]2)cc1 [Example 4, (S)-4-(5-(2-(1H-Imidazo[4,5-b]pyrazin-2-yl)propan-2-yl)-9-fluoro-5H-chromeno[2,3-b]pyridin-2-yl)-N,N-dimethylbenzamide] | 73.1% | – | –
3.92 nM | 21.1 nM | CC(C)(c1nc2nccnc2[nH]1)[C@@H]1c2ccc(-c3ccncc3)nc2Oc2c(F)cccc21 [Example 21, (S)-5-(2-(1H-Imidazo[4,5-b]pyrazin-2-yl)propan-2-yl)-9-fluoro-2-(pyridin-4-yl)-5H-chromeno[2,3-b]pyridine] | 45.9% | – | –
28.6 nM | 5000 nM | CC(C)(c1nc2nccnc2[nH]1)[C@@H]1c2ccc(-c3ccc(F)nc3)nc2Oc2c(F)cccc21 [Example 28, (S)-5-(2-(1H-Imidazo[4,5-b]pyrazin-2-yl)propan-2-yl)-9-fluoro-2-(6-fluoropyridin-3-yl)-5H-chromeno[2,3-b]pyridine] | 16.4% | – | –
0.67 nM | 20.1 nM | CC(C)Oc1ccc(-c2ccc3c(n2)Oc2c(F)cccc2[C@@H]3C(C)(C)c2nc3nccnc3[nH]2)cc1F [Example 10, (S)-5-(2-(1H-Imidazo[4,5-b]pyrazin-2-yl)propan-2-yl)-9-fluoro-2-(3-fluoro-4-isopropoxyphenyl)-5H-chromeno[2,3-b]pyridine] | 70.2% | – | –
121 nM | 864 nM | CC(C)(c1nc2cccnc2[nH]1)[C@@H]1c2ccc(-c3ccc(C(=O)N4CCOCC4)cc3)nc2Oc2c(F)cccc21 [Example 15, (S)-(4-(5-(2-(3H-Imidazo[4,5-b]pyridin-2-yl)propan-2-yl)-9-fluoro-5H-chromeno[2,3-b]pyridin-2-yl)phenyl)(morpholino)methanone] | 29.3% | – | –
12.4 nM | 169 nM | CC(C)(c1nc2cncnc2[nH]1)[C@@H]1c2ccc(-c3ccc(C(=O)N4CCOCC4)cc3)nc2Oc2c(F)cccc21 [Example 16, (S)-(4-(5-(2-(9H-Purin-8-yl)propan-2-yl)-9-fluoro-5H-chromeno[2,3-b]pyridin-2-yl)phenyl)(morpholino)methanone] | 52.2% | – | –
